Assay results from patent US10544089B2, “Innovative preparation and crystallization of iosimenol” (OTSUKA PHARMACEUTICAL CO., LTD., priority 2015, dated 2020).

Tests used:
[1] = Solubility of iosimenol in organic solvents (crystallization attempts); type: physicochemical
Description: The present inventors applied crystallization methods described in literature, but this approach always failed, independently on using crude or purified iosimenol. If any solid was obtained, we usually obtained solid of gummy consistency and we never observed any purity increase.

[2] = Heat stability of iosimenol in crystallization solution (colour change, impurities); type: physicochemical; settings: between 80-110° C.
Description: Although contrast media are relatively stable compounds, usually after a long-term exposure to heat, certain degradation may occur. The most vulnerable are amide groups and covalently bound iodine. In case of iosimenol, the acidic hydrogens on aliphatic carbon of malonyl group may cause cleavage of the bridge at higher temperature and can lead to form monomeric impurities. These all mentioned degradations are more intensive under strong acidic or strong basic conditions. Using our experience in formulation of iosimenol, we used trometamol as a buffer to control pH between 6-7 from the viewpoint of influencing of color. Ideal conditions for iosimenol crystallization are when the crystallization is performed at shortest process time at lowest possible temperature under suitable and controlled pH between 6-7 by buffer from the viewpoint of influencing of color.
Therefore, ideal conditions for crystallization are temperatures between 80-110° C., pH 6-7 and as short as possible time for crystallization.

solubility in solvents ([1]; alcohols, ethers and alkoxyalcohols): practically insoluble
solubility in aprotic solvents ([1]; aprotic solvents like dimethylformamide): extremely high solubility
Structure (SMILES): NC(=O)c1c(I)c(C(=O)NCC(O)CO)c(I)c(N(CC(O)CO)C(=O)CC(=O)N(CC(O)CO)c2c(I)c(C(N)=O)c(I)c(C(=O)NCC(O)CO)c2I)c1I (stereo not drawn) [iosimenol, N,N′-bis[3-carbamoyl-5-(2,3-dihydroxypropyl-carbamoyl)-2,4,6-triiodophenyl]-N,N′-bis(2,3-dihydroxypropyl)-malonamide]
degradation on heating (impurities) [2]: no new impurities or increased level of known impurities are observed
